Experiments:
LDL-C = test: Integrated analysis of six Phase 2 studies of Bempedoic acid; assay type: in vivo, human; conditions: for LDL-C placebo-adjusted LS means for percent change from baseline: integrated analysis of six Phase 2 studies
Procedure: Doses of Bempedoic acid ranging from 40 to 240 mg/day have been evaluated in the Phase 2 program. Based on data from the integrated analysis of safety and efficacy, observed values and percent change from baseline in the primary efficacy endpoint, LDL-C, together with a positive safety profile, support the choice of the 180-mg dose for the Phase 3 studies. […] Overall, balancing efficacy and safety, the 180-mg dose was chosen for the Phase 3 program.

patients = test: Phase 1 and 2 clinical trials of bempedoic acid: adverse events of special interest; assay type: in vivo, human; conditions: Phase 1 or 2 clinical trials to date
monkey = test: Preclinical monkey studies (hypoglycemia and metabolic acidosis)

## CC(C)(CCCCCC(O)CCCCCC(C)(C)C(=O)O)C(=O)O [Bempedoic acid, 8-hydroxy-2,2,14,14 tetramethylpentadecanedioic acid]
LDL-C; Phase 2 program, 180 mg
  safety profile of the 180-mg dose: excellent safety profile
LDL-C; 180 mg on top of stable statin therapy
  LDL-C placebo-adjusted LS means for percent change from baseline: ~22%
LDL-C; Bempedoic acid 180 mg, monotherapy or with Ezetimibe 10 mg
  LDL-C placebo-adjusted LS means for percent change from baseline: approximately 32%
patients
  cases of hypoglycemia or metabolic acidosis: No cases
monkey
  outcome of hypoglycemia and metabolic acidosis: monkey deaths

From patent publication US20210361618A1, “TRIPLET COMBINATION FORMULATIONS AND METHODS FOR TREATING OR REDUCING THE RISK OF CARDIOVASCULAR DISEASE” (priority 2017, published 2021)
